Several values for one entry are separate records, joined by “and”; a condition that tells them apart may be missing. Equal values may be shown once. Read-outs that look alike come from different tables or passages of the source.
Key:
[1] = biological target: T1, catalytic domain of human MMP-9 (Homo sapiens, UniProt P14780); assay: MMP-9 fluorogenic inhibition assay; assay type: biochemical; details: read-out: Calculated Ki(nM) MMP-9
T1 sequence (P14780 with tags, fused parts or gaps DEL216-390 limits assumed): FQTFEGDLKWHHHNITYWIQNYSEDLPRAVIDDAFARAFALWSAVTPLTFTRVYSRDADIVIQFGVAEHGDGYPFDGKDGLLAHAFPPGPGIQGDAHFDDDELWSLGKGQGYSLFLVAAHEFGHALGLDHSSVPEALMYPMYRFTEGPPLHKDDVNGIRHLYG
Procedure: (§1) All enzymes were pre-activated at 37° C. with aminophenylmercuric acetate (APMA) or trypsin before being made up to the final concentrations used in the assay. MMP-1 (30 nM) was activated with 0.93 mM APMA for 20 minutes, MMP-2 (30 nM) was activated with 1.32 mM APMA for 1 hour, MMP-3 (1010 nM) was activated with 1.81 mM APMA for 3 hours or heat activated at 55° C. for three hours, MMP-9 (100 nM) was activated with 2 mM APMA for 2 hours, human MMP-13 (100 nM) was activated with 2 mM APMA for 2 hours, and MMP-14 (900 nM) was activated with 0.9 ng/ml trypsin for 25 minutes, followed by the addition of 4.5 ng/ml trypsin inhibitor.
(§2) For MMP-1, the assay buffer used was 50 mM Tris, 200 mM NaCl, 5 mM CaCl2, 20 μM ZnCl2, 0.05% (w/v) Brij 35, pH 7.5. […] For MMP-13, the assay buffer used was 50 mM Tris, pH 7.5, 200 mM NaCl, 5 mM CaCl2, […] and 0.02% (w/v) Brij 35. For MMP-14, the assay buffer used was 50 mM Tris, 100 mM NaCl, 10 mM CaCl2, 0.25% (w/v) Brij 35, pH 7.5.
MMP-2, MMP-3 and MMP-9 inhibition was assayed by incubating activated catalytic domain of human MMP-2, MMP-3 and MMP-9 at 1 nM in assay buffer with 5 μM substrate Mca-Arg-Pro-Lys-Pro-Tyr-Ala-Nva-Trp-Met-Lys(Dnp)-NH2, and six different concentrations of inhibitor. The incubation was performed at 37° C. for 60 minutes.
(§3) The final assay concentrations of inhibitors used in the MMP-1 assays to determine Ki were 50, 40, 30, 20, 10 and 5 μM. For MMP-2, the final assay concentrations of inhibitors used were 1000, 800, 600, 400, 200 and 100 nM. For MMP-3, the final assay concentrations of inhibitors used were 5, 4, 3, 2, 1 and 0.5 nM. For MMP-9 and MMP-14, the final assay concentrations of inhibitors used were 5, 4, 3, 2, 1 and 0.5 μM.
(§4) All assays were carried out in a black 96-well plate with a final volume of 100 μl in each well. […] For MMP-2, MMP-3, MMP-9 and MMP-14, fluorescence was read every 2 minutes at […] and 393 nm γem for 1 hour using a Fluorostar fluorimeter (BMG) with BIOLISE software. For MMP-1 assays, the filters used were 355 nm γex and 440 nm γem; fluorescence was read every 2 minutes for 1 hour. […]

[2] = biological target: T2, catalytic domain human MMP-14 (Homo sapiens, UniProt P50281); assay: MMP-14 fluorogenic inhibition assay; assay type: biochemical; details: read-out: Calculated Ki(nM) MMP-14
T2 construct: made in house
Procedure: as §1, §2
MMP-14 inhibition was assayed by incubating activated catalytic domain human MMP-14 at 1 nM in assay buffer with 10 μM Mca-Pro-Leu-Gly-Leu-Dpa-Ala-Arg-NH2 and six concentrations of inhibitor. The incubation was performed at 37° C. for 60 minutes.
as §3
as §4, with “well. Inhibitors were dissolved in dimethylsulphoxide (DMSO) to 1 mM.” for “well.”

[3] = system: circular full thickness lesions; assay: Normal wound healing in pigs, full thickness lesions; assay type: in vivo; details: 0.3% w/v formulation in CMC hydrogel, 1 ml topically daily, pig
Procedure: The experiment was performed in 3 female SPF pigs (crossbreed of Danish country, Duroc and Yorkshire). At start of the acclimatisation period the body weight of the animals was about 30 kg. The lesions were established on day 1. The animals were anaesthetised with Stresnil® Vet. Janssen, Belgium (40 mg azaperone/ml, 1 ml/10 kg), and Atropin DAK, Denmark (1 mg atropine/ml, 0.05 ml/kg), given as a single intramuscular injection followed by i.v. injection of Hypnodil® Janssen, Belgium (50 mg metomidate/ml, 1-2 ml). Eight circular full thickness lesions (diameter 20 mm) were made on the prepared area, four on each side of the spine. The lesions were numbered 1 (most cranial) to 4 (most caudal) on the left side of the animal, and 5 (most cranial) to 8 (most caudal) on the right side of the animal. After surgery and daily thereafter, the test articles were applied as follows: The dosing volume of each dosing was 1 ml. The dressings were changed on a daily basis. Each lesion was observed daily. The outlines of the wound edge and the epithelial edge will be drawn on sterile transparent sheets, and the areas contained inside the edges were measured planimetrically. The measurement of areas was performed by Scan Beam […] processed to give group mean values and standard deviations where appropriate. Possible outliers were identified, too. Each variable was tested for normality by the Shapiro-Wilk method. In case of normal distribution, two-way analysis of variance was carried out for the variable with the factor: animal and treatment, and if significant difference were detected, possible intergroup differences were assessed using the least-squares means. Otherwise the possible intergroup differences were identified with Wilcoxon Rank-Sum test.

uPA [4] = biological target: T3, uPA (Homo sapiens, UniProt P00749); assay: biochemical; details: for Ki: UPA
Procedure: A pre-incubation of compound with enzyme is carried out for 15 minutes at 37° C., followed by substrate addition and further incubation for 30 minutes at the same temperature. The final assay volume is 200[…]1.
uPA (urokinase type plasminogen activator) inhibition was assayed by incubating human uPA at 33 IU/ml in 75 mM Tris, pH 8.1, 50 mM NaCl with 180 μM S2444 (substrate) and various concentrations of inhibitors. For the primary screen results, the incubation was performed at 37° C. for 30 minutes.
These assays were carried out in a 96-well plate. […] The incubation was performed after an initial pre-incubation at 37° C. for 15 mins and absorbance was read at 405 nm at 0 mins and at the end of the incubation on a […]ax microplate reader (Molecular Devices Corporation), using SOFTMaxPRO software.

human tPA = biological target: T4, human tPA (Homo sapiens, UniProt P00750); assay: tPA chromogenic inhibition assay (S2288); assay type: biochemical; details: 100 μM compound
T4 construct: Human tPA (one chain) 10 μg/vial (Chromogenix, 821157-039/0); purchased Chromogenix 821157-039/0
Procedure: The method for analysis of tPA inhibition is similar to that for uPA inhibition. The assay utilises final concentrations of tPA of 0.4 µg/ml with 0.1 mg/ml tPA stimulator, 0.4 mM S2288 (substrate) and various concentrations of inhibitors, made up in uPA assay buffer. Pre-incubation is carried out with compound, enzyme and enzyme stimulator, as for uPA, prior to the incubation with substrate. Incubation time is 60 minutes at performed at 37° C. Data analysis is identical to that described above for uPA, using a known Km for tPA of 250 μM.
The incubation was performed at 37° C. for 60 mins. Percentage inhibition was calculated.

Plasmin = biological target: T5, Plasmin (Homo sapiens, UniProt P00747); assay: Plasmin chromogenic inhibition assay (Chromozym-PL); assay type: biochemical; details: 100 μM compound
T5 construct: Human plasmin, 2 mg/vial (Quadratech, 810665) was reconstituted to 1 mg/ml in buffer; purchased Quadratech 810665
Procedure: Plasmin inhibition is assayed by incubating human plasmin at 0.7 μg/ml with 0.2 mM Chromozym-PL (substrate) and various concentrations of inhibitors in uPA assay buffer. Pre-incubation is carried out as for uPA and the incubation is performed at 37° C. for 30 mins.
The incubation was performed at 37° C. for 30 mins. Percentage inhibition was calculated.

uPA [5] = biological target: T3, uPA; assay: biochemical; details: read-out: Percentage inhibition of proteolysis
Procedure: (§5) The extent of proteolysis of the growth factors was assayed by incubating TGF-β2, VEGF, PDGF-BB and KGF-2 with the proteases uPA, plasmin, MMP-3 and MMP-13 in assay buffer (either uPA/plasmin buffer, 50 mM tris-HCl, pH 7.4 or MMP assay buffer, 100 mM Tris, 10 mM NaCl, 10 mM CaCl2, 0.05% (w/v) Brij 35, pH 7.5). […] The growth factors were added to the incubation mixture at a final concentration of […], unless otherwise stated.
(§6) The effects of uPA were determined by incubation at a typical final concentration of 25 μg/ml (1500 U/ml) with each growth factor. The effects of plasmin were determined at a typical final concentration of 0.1 mg/ml by incubation with the individual growth factors in assay buffer. MMP-3 and -13 were incubated at a typical final concentration of 10 nM with the growth factors in assay buffer. Dual protease assays carried out with uPA and MMP-3 together were performed in 100 mM Tris, […], 10 mM CaCl2, 0.05% (w/v) Brij 35, pH 7.5. All incubations were performed in siliconised tubes (Sigma Aldrich, UK).
(§7) The inhibitors used in these experiments were compound 9454, compound 9470 and compound 5214. These were dissolved in DMSO at a concentration of 10 mM. Typical final concentrations for these inhibitors were in the range of 100 μM to 10 nM. Aprotinin was dissolved in the Tris buffer at 10 mg/ml and used at a typical concentration of 10 μg/ml.
All assays were carried out at 37° C. and enzymes were pre-incubated for 15 minutes with or without inhibitor as appropriate, prior to addition of growth factors. After the addition of growth factor, the incubation mixtures were divided into aliquots in siliconised tubes for each time point used. Incubations were carried out over a time course typically of 24 hours, unless otherwise stated. They were stopped by the addition of an equal volume of 2×Novex reducing loading buffer (final concentration 1.09 M glycerol, 141 mM Tris-base, 106 mM Tris-HCl, 73 mM lithium dodecyl sulphate (LDS), 0.5 mM ethylenediaminetetraacetic acid, 0.22 mM Serva Blue G250, 0.175 mM Phenol Red, pH 8.5) and samples prepared for electrophoresis by incubating at 70° C. for 10 minutes.
LDS-PAGE was performed using the NOVEX Xcell II Mini-Cell gel apparatus (Groningen, Holland) using a variation on the method of Laemmli (1970). Equal volumes of samples were loaded onto NuPage 4-12% Bis-tris gels with molecular weight markers (SeeBlue Plus2 Pre-stained Standards). Molecular weight determination was performed by comparison of bands with markers of molecular weight 3, 6, 14, 17, 28, 38, 49, 62, 98 and 188 kDa. […]

uPA and MMP-3 = assay: Inhibition of uPA and MMP-3-mediated KGF-2 degradation (dual protease assay); assay type: biochemical, human; details: uPA and MMP-3 together / KGF-2; inhibitors used (100 μM), alone or in combination
Procedure: as §5, §6
as §7, with “μg/ml. […]” for “μg/ml.”

[6] = individual determinations, 100 µM
[7] = individual determinations, read-out: % inhibition at 100 μM
[8] = mean ± sem, read-out: % inhibition at 100 μM Mean ± sem

T4 sequence (P00750 36-562): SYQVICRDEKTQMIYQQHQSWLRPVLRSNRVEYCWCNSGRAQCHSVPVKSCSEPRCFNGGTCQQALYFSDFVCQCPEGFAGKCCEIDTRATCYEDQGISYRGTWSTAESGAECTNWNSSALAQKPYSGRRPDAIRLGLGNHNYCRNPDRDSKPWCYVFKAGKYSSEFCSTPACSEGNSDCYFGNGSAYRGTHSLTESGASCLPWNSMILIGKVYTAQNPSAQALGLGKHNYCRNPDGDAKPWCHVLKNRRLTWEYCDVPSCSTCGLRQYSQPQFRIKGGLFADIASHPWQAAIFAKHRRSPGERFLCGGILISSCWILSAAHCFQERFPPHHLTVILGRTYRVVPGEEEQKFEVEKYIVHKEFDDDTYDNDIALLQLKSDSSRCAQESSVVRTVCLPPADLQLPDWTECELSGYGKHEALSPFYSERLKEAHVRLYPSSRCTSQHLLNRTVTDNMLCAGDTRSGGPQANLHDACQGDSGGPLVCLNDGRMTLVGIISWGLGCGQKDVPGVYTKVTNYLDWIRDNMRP
T5 sequence (P00747 581-810 limits assumed): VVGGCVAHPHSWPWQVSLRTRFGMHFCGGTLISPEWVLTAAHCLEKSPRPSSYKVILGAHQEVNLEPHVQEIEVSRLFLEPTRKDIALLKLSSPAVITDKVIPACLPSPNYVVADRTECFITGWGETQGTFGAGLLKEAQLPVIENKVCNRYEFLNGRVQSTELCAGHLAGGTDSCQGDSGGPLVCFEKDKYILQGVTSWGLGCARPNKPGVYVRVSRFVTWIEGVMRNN
T5 sequence (P00747 97-580 partner limits assumed): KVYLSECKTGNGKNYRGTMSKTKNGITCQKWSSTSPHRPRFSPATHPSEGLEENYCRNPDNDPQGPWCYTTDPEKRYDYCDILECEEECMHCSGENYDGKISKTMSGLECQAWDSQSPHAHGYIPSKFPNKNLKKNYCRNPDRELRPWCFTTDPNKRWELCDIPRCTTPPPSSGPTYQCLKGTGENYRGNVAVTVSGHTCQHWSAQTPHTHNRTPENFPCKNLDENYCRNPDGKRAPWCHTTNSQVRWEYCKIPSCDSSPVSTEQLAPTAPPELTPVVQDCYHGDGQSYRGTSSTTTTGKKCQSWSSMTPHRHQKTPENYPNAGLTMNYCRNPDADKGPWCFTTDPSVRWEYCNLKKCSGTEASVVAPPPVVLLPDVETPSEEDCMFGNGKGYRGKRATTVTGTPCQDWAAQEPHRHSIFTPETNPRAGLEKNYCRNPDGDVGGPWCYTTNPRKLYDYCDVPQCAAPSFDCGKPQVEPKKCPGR

Ki [1] | Ki [2] | SMILES | Non-epithelialised area MEAN ([3]; DAY 8) | Non-epithelialised area MEAN ([3]; DAY 9) | Non-epithelialised area MEAN ([3]; DAY 10) | Non-epithelialised area MEAN ([3]; DAY 11) | Ki (uPA [4]; Calculated Ki (nM) Mean ± sem, mean ± sem) | Ki (uPA [4]; Calculated Ki (nM), individual determinations) | Potency as inhibitor of uPA (in words) (uPA [4]; from Table 1) | % inhibition at 100 μM (human tPA; [6]) | inhibition at 100 µM (human tPA; [7]) | inhibition at 100 µM (human tPA; [8]) | % inhibition at 100 μM (Plasmin; [6]) | inhibition at 100 µM (Plasmin; [7]) | inhibition at 100 µM (Plasmin; [8]) | inhibition at 0.1 µM (uPA [5]) | inhibition at 1 µM (uPA [5]) | inhibition at 10 µM (uPA [5]) | inhibition at 100 µM (uPA [5]) | Percentage inhibition of proteolysis (uPA and MMP-3)
0.47 nM | 3.68 nM | CNC(=O)[C@@H](Cc1ccccc1)NC(=O)C(CC(C)C)[C@H](CSc1cccs1)C(=O)NO (some centres unmarked) [compound 5719] | 294.0 | 248.0 | 210.1 | 148.9 | – | – | – | – | – | – | – | – | – | – | – | – | – | –
– | – | NC(N)=Nc1ncc(Cl)c2ccc(S(=O)(=O)N3CCCC3C(=O)O)cc12 (centres unmarked) [compound 5214] | – | – | – | – | 9.9 ± 0.76 nM | 11 nM and 9.6 nM and 7.8 nM | potent inhibitor of uPA | 47% and 50% | 38% | 45 ± 3.61% | 33% and 28% and 27% | 31% | 29.8 ± 1.38% | 17% | 76% | 83% | 91% | 38.6

— patent publication US20050026836A1, “Composition for the treatment of damaged tissue” (priority 1999, published 2005)
